Assay results: ChEMBL document CHEMBL5352428, “Covalent inhibitors of bacterial peptidoglycan biosynthesis enzyme MurA with chloroacetamide warhead” (Eur J Med Chem, 2022)
Values after ≈ are worked out from the molar mass of the structure shown. Active and inactive are the calls of the source. The calls are words filed in the database; no cut-off is given here.

Legend:
[1] = test system: Staphylococcus aureus; test: Antibacterial activity against Staphylococcus aureus ATCC 29213 assessed as bacterial growth inhibition incubated for 24 hrs by broth dilution method; format: functional
[2] = Thiol reactivity of compound at pH 7.4 buffer at 100 uM and measured for 4 hrs every 5 mins in presence of DTNB and TCEP by microplate reader analysis; format: physicochemical; details: pH 7.4, 4 h
[3] = test system: Escherichia coli; test: Antibacterial activity against Escherichia coli ATCC 25922 assessed as bacterial growth inhibition incubated for 24 hrs by broth dilution method; format: functional
[4] = Thiol reactivity of compound at pH 7.4 buffer assessed as fold decrease by measuring second order rate constant at 100 uM and measured for 4 hrs every 5 mins in presence of DTNB and TCEP by microplate reader analysis relative to Iodoacetamide; format: physicochemical; details: pH 7.4, 4 h
[5] = target: UDP-N-acetylglucosamine 1-carboxyvinyltransferase (Escherichia coli K-12) (UniProt P0A749); test: Inhibition of recombinant Escherichia coli MurA expressed in Escherichia coli NiCo21 assessed as residual activity using UNAG and PEP as substrate at 500 uM preincubated for 30 mins in presence of UNAG followed by PEP substrate addition and measured after 15 mins by malachite green based colorimetric assay; details: time 45.0 min
[6] = target: UDP-N-acetylglucosamine 1-carboxyvinyltransferase (Escherichia coli K-12) (UniProt P0A749); test: Inhibition of recombinant Escherichia coli MurA expressed in Escherichia coli NiCo21 using UNAG and PEP as substrate and measured for 15 mins by malachite green based colorimetric assay
[7] = test system: Escherichia coli; test: Antibacterial activity against Escherichia coli ATCC 25922 assessed as bacterial growth inhibition at <=128 ug/ml incubated for 24 hrs by broth dilution method; format: functional, organism-based; details: dose <= 128.0 µg/ml
[8] = test system: Staphylococcus aureus; test: Antibacterial activity against Staphylococcus aureus ATCC 29213 assessed as bacterial growth inhibition at <= 128 ug/ml incubated for 24 hrs by broth dilution method; format: functional, organism-based; details: dose <= 128.0 µg/ml
[9] = target: UDP-N-acetylglucosamine 1-carboxyvinyltransferase (Escherichia coli K-12) (UniProt P0A749); test: (§1) Irreversible inhibition of recombinant Escherichia coli MurA expressed in Escherichia coli NiCo21 assessed as residual activity using UNAG and PEP as substrate at 400 uM preincubated for 30 mins in presence of UNAG followed by 100 fold dilution and PEP substrate addition and measured after 15 mins by malachite green based colorimetric assay; details: time 45.0 min
[10] = target: UDP-N-acetylglucosamine 1-carboxyvinyltransferase (Escherichia coli K-12) (UniProt P0A749); test: as §1, with “NiCo21” for “NiCo21 assessed as residual activity”, “assessed as second-order rate constant for enzyme inactivation, ratio of Kinact/Ki” for “at 400 uM”; details: time 45.0 min
[11] = target: T1, UDP-N-acetylglucosamine 1-carboxyvinyltransferase (Escherichia coli K-12, UniProt P0A749); test: Inhibition of recombinant Escherichia coli MurA expressed in Escherichia coli NiCo21 using UNAG and PEP as substrate preincubated for 15 mins in presence of UNAG followed by PEP substrate addition and measured after 15 mins by malachite green based colorimetric assay
[12] = target: T1, UDP-N-acetylglucosamine 1-carboxyvinyltransferase; test: Inhibition of recombinant Escherichia coli MurA expressed in Escherichia coli NiCo21 using UNAG and PEP as substrate preincubated for 30 mins in presence of UNAG followed by PEP substrate addition and measured after 15 mins by malachite green based colorimetric assay
[13] = target: UDP-N-acetylglucosamine 1-carboxyvinyltransferase (Escherichia coli K-12) (UniProt P0A749); test: Binding affinity to UNAG activated recombinant Escherichia coli MurA Cys115 residue at 5 mM incubated for 30 mins in presence of UNAG by LC-MS/MS analysis
[14] = target: UDP-N-acetylglucosamine 1-carboxyvinyltransferase (Escherichia coli K-12) (UniProt P0A749); test: as §1, with “by” for “by 100 fold dilution and”; details: time 45.0 min

UDP-N-acetylglucosamine 1-carboxyvinyltransferase (Escherichia coli K-12), sequence (P0A749 whole entry): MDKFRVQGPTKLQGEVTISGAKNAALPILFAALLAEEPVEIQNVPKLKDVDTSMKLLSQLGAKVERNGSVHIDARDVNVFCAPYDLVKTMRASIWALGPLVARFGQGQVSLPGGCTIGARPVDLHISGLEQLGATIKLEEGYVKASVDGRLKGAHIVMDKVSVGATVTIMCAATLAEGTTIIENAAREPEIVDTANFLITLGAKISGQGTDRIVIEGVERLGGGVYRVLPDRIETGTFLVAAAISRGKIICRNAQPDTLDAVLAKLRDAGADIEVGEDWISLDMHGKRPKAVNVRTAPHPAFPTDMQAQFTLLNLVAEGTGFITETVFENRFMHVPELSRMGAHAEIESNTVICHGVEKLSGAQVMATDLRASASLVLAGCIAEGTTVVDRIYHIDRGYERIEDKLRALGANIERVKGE
T1 sequence (P0A749 whole entry): as above

| MIC [1] | Drug metabolism [2] | MIC [3] | fold change (FC) [4] | Activity [5] | inhibition [6] | Activity [9] | Ratio [10] | IC50 [11] | IC50 [12] | Activity [13] | Activity [14] | Compound | Activity [7] | Activity [8] |
| --- | --- | --- | --- | --- | --- | --- | --- | --- | --- | --- | --- | --- | --- | --- |
| 4 µg/mL (≈ 14.7 µM) | Metabolite_Detected | 16 µg/mL (≈ 58.6 µM) | 3 | 81% | – | – | – | – | – | – | – | O=C(CCl)N1CCN(CCC2CCCCC2)CC1 | – | – |
| – | Metabolite_Notdetected | – | 33 | – | inactive | inactive | 4.78 10^-3/µM/min | 400 µM | 39 µM | Active | 1.6% | O=C(CCl)NC1CCCC2CCCCC21 (stereo unspecified) | inactive | inactive |
